# Counter-ions that a name gives are not always drawn. Like-named read-outs stand apart in the source and are kept apart here.
# How the values were obtained:
# [1] = system: NCI-H292 lung cancer cells; experiment: FDA drug screening, complete media vs cholesterol-free media without statin (TABLE 1); format: cell-based, human
# [2] = system: NCI-H292 lung cancer cells; experiment: FDA drug screening, complete media vs cholesterol-free media with simvastatin (TABLE 2); format: cell-based, human
# [3] = Complete minus Cholesterol-free, greater than 0 enhanced anti-cancer activity, about 0 neutral, below 0 antagonist
# [4] = NCI-H292 cells, FDA drug library screen, cholesterol-free media without statin
# [5] = NCI-H292 cells, FDA drug library screen, complete media
# [6] = NCI-H292 cells, cholesterol-free media with simvastatin 0.04 μM, cell growth value in FDA drug screen
# [7] = NCI-H292 cells, complete media, cell growth value in FDA drug screen
# [8] = complete media minus cholesterol-free media + simvastatin, >0 enhanced anti-cancer activity, about 0 neutral, <0 antagonist
# [9] = NCI-H292 cells, cholesterol-free media with simvastatin 0.04 μM, FDA drug library screen (TABLE 2)
# [10] = NCI-H292 cells, complete media, FDA drug library screen (TABLE 2)
# [11] = complete media minus cholesterol-free media + simvastatin (0.04 μM), >0 enhanced anti-cancer activity, about 0 neutral, <0 antagonist
# [12] = NCI-H292 cells, FDA drug library screen, cholesterol-free media with simvastatin 0.04 μM
# [13] = complete media vs cholesterol-free media + simvastatin (0.04 μM), >0 enhanced anti-cancer activity, about 0 neutral, <0 antagonist
# [14] = NCI-H292 cells, cholesterol-free media without statin, FDA drug library screen
# [15] = NCI-H292 cells, complete media, FDA drug library screen
# [16] = complete vs cholesterol-free media, >0 enhanced anti-cancer activity, about 0 neutral, <0 antagonist
# [17] = Complete minus Cholesterol-free, greater than 0 enhanced anti-cancer activity, about 0 neutral, below 0 antagonists
# [18] = NCI-H292 cells in cholesterol-free media without statin
# [19] = NCI-H292 cells in complete media
# [20] = NCI-H292 cells, FDA library drug in cholesterol-free media with simvastatin 0.04 μM
# [21] = NCI-H292 cells, FDA library drug in complete media
# [22] = Complete minus Cholesterol-free, >0 enhanced anti-cancer activity, about 0 neutral, <0 antagonist
# [23] = NCI-H292 cells, cholesterol-free media without statin
compound,measurement,setting,value
COC(=O)C1=C(C)NC(C)=C(C(=O)OCCN2CCN(C(c3ccccc3)c3ccccc3)CC2)C1c1cccc([N+](=O)[O-])c1 (stereo not drawn) [Manidipine (dihydrochloride)],Difference,[1]; [3],−0.08
same,Cholesterol-free,[1]; [4],0.814
same,Complete,[1]; [5],0.7357
same,Cholesterol-free media + simvastatin (0.04 μM),[2]; [6],1.023
same,Complete Media,[2]; [7],1.051
same,Difference,[2]; [8],0.03
C[N+](C)(C)NCCC(=O)[O-] [Mildronate],Difference,[1]; [3],−0.08
same,Cholesterol-free,[1]; [4],0.9949
same,Complete,[1]; [5],0.9146
same,Cholesterol-free media + simvastatin (0.04 μM),[2]; [9],0.9839
same,Complete Media,[2]; [10],0.9927
same,Difference,[2]; [11],0.01
C=CCc1ccccc1OCC(O)CNC(C)C (stereo not drawn) [Alprenolol (hydrochloride)],Difference,[1]; [3],−0.15
same,Cholesterol-free,[1]; [4],1.198
same,Complete,[1]; [5],1.044
same,Cholesterol-free media + simvastatin (0.04 μM),[2]; [12],1.228
same,Difference,[2]; [13],−0.08
C[C@]12CCC(=O)C=C1CC[C@@H]1[C@@H]2[C@@H](O)C[C@@]2(C)[C@H]1CC[C@]2(O)C(=O)CO [Hydrocortisone],Cholesterol-free,[1]; [14],0.8914
same,Complete,[1]; [15],1.03
same,Difference,[1]; [16],0.14
same,Cholesterol-free media + simvastatin (0.04 μM),[2]; [6],0.4287
same,Complete Media,[2]; [7],0.4959
same,Difference,[2]; [8],0.07
CCN(CC)CCNC(=O)c1ccc(N)cc1 [Procainamide (hydrochloride)],Difference,[1]; [17],−0.51
same,Cholesterol-free,[1]; [18],1.397
same,Complete,[1]; [19],0.8831
same,Cholesterol-free media + simvastatin (0.04 μM),[2]; [20],1.529
same,Complete Media,[2]; [21],1.165
same,Difference,[2]; [13],−0.36
CO[C@H]1C[C@@H]2CC[C@@H](C)[C@@](O)(O2)C(=O)C(=O)N2CCCC[C@H]2C(=O)O[C@H]([C@H](C)C[C@@H]2CC[C@@H](OCCO)[C@H](OC)C2)CC(=O)[C@H](C)/C=C(\C)[C@@H](O)[C@@H](OC)C(=O)[C@H](C)C[C@H](C)/C=C/C=C/C=C/1C [Everolimus],Difference,[1]; [22],−0.23
same,Cholesterol-free,[1]; [23],0.8236
same,Complete,"[1]; NCI-H292 cells, complete media",0.5968
same,Cholesterol-free media + simvastatin (0.04 μM),[2]; [9],0.3946
same,Complete Media,[2]; [10],0.373
same,Difference,[2]; [11],−0.02
C[N+]1(C)[C@@H]2CC[C@H]1C[C@@H](OC(=O)C(CO)c1ccccc1)C2 (stereo partly drawn) [Atropine methyl bromide],Cholesterol-free,[1]; [14],1.114
same,Complete,[1]; [15],1.708
same,Difference,[1]; [16],0.59
same,Cholesterol-free media + simvastatin (0.04 μM),"[2]; NCI-H292 cells, drug in cholesterol-free media with simvastatin 0.04 μM",1.143
same,Complete Media,"[2]; NCI-H292 cells, drug in complete media",0.9562
same,Difference,[2]; [13],−0.19
CC(C)NCC(O)c1ccccc1Cl (stereo not drawn) [Clorprenaline hydrochloride],Cholesterol-free,[1]; [14],0.6182
same,Complete,[1]; [15],1.062
same,Difference,[1]; [16],0.44
same,Cholesterol-free media + simvastatin (0.04 μM),[2]; [12],0.6832
same,Complete Media,[2]; [5],0.8199
same,Difference,[2]; [8],0.14
CCc1c2c(nc3ccc(OC(=O)N4CCC(N5CCCCC5)CC4)cc13)-c1cc3c(c(=O)n1C2)COC(=O)[C@]3(O)CC [Irinotecan],Difference,[1]; [3],−0.08
same,Cholesterol-free,[1]; [4],0.2676
same,Complete,[1]; [5],0.1842
same,Cholesterol-free media + simvastatin (0.04 μM),[2]; [20],0.729
same,Complete Media,[2]; [21],0.3631
same,Difference,[2]; [13],−0.37
CCCCc1oc2ccccc2c1C(=O)c1cc(I)c(OCCN(CC)CC)c(I)c1 [Amiodarone (hydrochloride)],Difference,[1]; [17],−0.67
same,Cholesterol-free,[1]; [18],1.555
same,Complete,[1]; [19],0.8858
same,Cholesterol-free media + simvastatin (0.04 μM),[2]; [6],1.081
same,Complete Media,[2]; [7],1.107
same,Difference,[2]; [8],0.03
Solifenacin (Succinate),Cholesterol-free,[1],1.612
same,Complete,[1],1.244
same,Difference,[1],−0.37
same,Cholesterol-free media + simvastatin (0.04 μM),[2],0.8847
same,Complete Media,[2],0.7655
same,Difference,[2],−0.12
Ifenprodil (tartrate),Difference,[1]; [22],0.02
same,Cholesterol-free,[1]; [14],0.8921
same,Complete,[1]; [15],0.9115
same,Cholesterol-free media + simvastatin (0.04 μM),[2]; [12],0.4918
same,Difference,[2]; [8],0.57
CCCC(CCC)C(N)=O [Valpromide],Difference,[1]; [22],−0.27
same,Cholesterol-free,[1]; [23],1.075
same,Complete,"[1]; NCI-H292 cells, complete media",0.8044
same,Cholesterol-free media + simvastatin (0.04 μM),[2]; [12],1.404
same,Complete Media,[2]; [5],1.717
same,Difference,[2]; [8],0.31
NC(=O)C(c1ccccc1)(c1ccccc1)[C@@H]1CCN(CCc2ccc3c(c2)CCO3)C1 (racemic) [(±)-Darifenacin],Cholesterol-free,[1]; [14],1.009
same,Complete,[1]; [15],1.18
same,Difference,[1]; [16],0.17
same,Cholesterol-free media + simvastatin (0.04 μM),[2]; [12],0.9772
same,Complete Media,[2]; [5],0.8726
same,Difference,[2]; [13],−0.10
CCOC(=O)[C@H](CCc1ccccc1)N[C@@H](C)C(=O)N1C(=O)N(C)C[C@H]1C(=O)O [Imidapril (hydrochloride)],Cholesterol-free,[1]; [14],0.9489
same,Complete,[1]; [15],1.458
same,Difference,[1]; [16],0.51
same,Cholesterol-free media + simvastatin (0.04 μM),[2]; [20],1.282
same,Complete Media,[2]; [21],0.8523
same,Difference,[2]; [13],−0.43
C[C@H](Cn1cnc2c(N)ncnc21)OCP(=O)(O)O [Tenofovir],Difference,[1]; [17],−0.62
same,Cholesterol-free,[1]; [18],1.637
same,Complete,[1]; [19],1.013
same,Cholesterol-free media + simvastatin (0.04 μM),[2]; [12],0.8374
same,Complete Media,[2]; [5],1.066
same,Difference,[2]; [8],0.23
Heparin (Lithium salt),Difference,"[1]; Complete minus Cholesterol-free, […]",−0.22
same,Cholesterol-free,[1]; [23],1.174
same,Complete,"[1]; NCI-H292 cells, complete media",0.9566
same,Complete Media,"[2]; NCI-H292 cells, complete media, […]",1.136
same,Difference,"[2]; complete media minus cholesterol-free media + simvastatin, […]",0.08
N[C@@H]1C[C@H]1c1ccccc1.N[C@@H]1C[C@H]1c1ccccc1.O=S(=O)(O)O [Tranylcypromine (hemisulfate)],Cholesterol-free,[1],1.175
same,Complete,[1],0.8249
same,Difference,[1],−0.35
same,Cholesterol-free media + simvastatin (0.04 μM),[2],0.8773
same,Complete Media,[2],0.7026
same,Difference,[2],−0.17
CC#C[C@]1(O)CC[C@H]2[C@@H]3CCC4=CC(=O)CCC4=C3[C@@H](c3ccc(N(C)C)cc3)C[C@@]21C [Mifepristone],Difference,[1]; [17],−0.57
same,Cholesterol-free,[1]; [18],1.574
same,Complete,[1]; [19],0.9996
same,Cholesterol-free media + simvastatin (0.04 μM),[2]; [20],1.308
same,Complete Media,[2]; [21],1.019
same,Difference,[2]; [13],−0.29
OCCOc1ccc(/C(=C(/CCCl)c2ccccc2)c2ccccc2)cc1 [Ospemifene],Cholesterol-free,[1],1.029
same,Complete,[1],1.255
same,Difference,[1],0.23
same,Cholesterol-free media + simvastatin (0.04 μM),[2],1.909
same,Complete Media,[2],1.222
same,Difference,[2],−0.69
CC(=O)OCC(=O)[C@@]1(O)[C@H](C)C[C@H]2[C@@H]3CCC4=CC(=O)C=C[C@]4(C)[C@@]3(F)[C@@H](O)C[C@@]21C [Dexamethasone acetate],Difference,[1]; [22],−0.04
same,Cholesterol-free,[1]; [14],0.6815
same,Complete,[1]; [15],0.6403
same,Cholesterol-free media + simvastatin (0.04 μM),[2]; [12],0.9553
same,Complete Media,[2]; [5],0.8728
same,Difference,[2]; [13],−0.08
COc1ccnc(C[S+]([O-])c2nc3cc(-n4cccc4)ccc3[nH]2)c1C (stereo not drawn) [Ilaprazole],Difference,[1]; [3],−0.14
same,Cholesterol-free,[1]; [4],1.326
same,Complete,[1]; [5],1.19
same,Cholesterol-free media + simvastatin (0.04 μM),[2]; [20],1.567
same,Complete Media,[2]; [21],1.084
same,Difference,[2]; [13],−0.48

# — US20250144067A1, “PERSONALIZED STARVATION THERAPY FOR CANCER” (Faeth Therapeutics, Inc., priority 2021, published 2025)
